In US10308689B2, “Dengue virus (DV) polypeptide sequences, T cell epitopes and methods and uses thereof” (LA JOLLA INSTITUTE FOR ALLERGY AND IMMUNOLOGY, priority 2010, dated 2019):
Ends that are not written are not given here.

What was measured:
[1] = target: purified HLA molecules (corresponding predicted allele); experiment: MHC peptide-binding assay, summary over alleles; parameters: species or system human
[2] = tested on: PBMC of healthy adult blood donors from Colombo, Sri Lanka; experiment: Ex vivo IFNγ ELISPOT, HLA-matched PBMC of Sri Lankan blood donors; type: cell-based, human; parameters: Total Response per epitope: unit not given here; details: for # donors responded: number of donors responding to the epitope; for T cell response [SFC]: ex vivo IFNγ SFC/10^6 PBMC; for # of responders: responding donors, HLA allele(s)
[3] = tested on: splenic CD8+ T cells from DENV3 (D3S5CX) infected HLA transgenic IFN-α/βR−/− mice; experiment: IFNγ ELISPOT, CD8+ T cells of DENV3 (D3S5CX) infected HLA class I transgenic IFN-α/βR−/− mice; type: cell-based, mouse; details: HLA A*0201 transgenic IFN-α/βR−/− mice, day 7 after DENV3 D3S5CX; SFC/10^6 T cells
[4] = IFNγ ELISPOT response summed over responding donors, per epitope
[5] = HLA-matched PBMC, proteome-wide screen
[6] = HLA allele, supertype and serotype
[7] = summed IFNγ ELISPOT response per epitope, HLA allele and serotype as given
[8] = restricting HLA allele and serotype as given
[9] = total over responding donors, restricting HLA allele and serotype as given

NPEIEDDIF
IC50 ([1]; allele B*3501): 518 nM
Total Response per epitope [2, 4]: 3390.0
# donors responded [2, 5]: 10
T cell response [SFC] ([2]; per epitope): 3390 SFC
# of responders [2]: 10

CC[C@H](C)[C@H](NC(=O)CNC(=O)[C@H](CCC(=O)O)NC(=O)[C@@H]1CCCN1C(=O)[C@@H](N)[C@@H](C)O)C(=O)N[C@H](C(=O)N1CCC[C@H]1C(=O)N[C@@H](CO)C(=O)N[C@@H](CCSC)C(=O)O)[C@@H](C)CC
IC50 ([1]; allele B*3501): 8 nM
Total Response per epitope [2, 4]: 2716.7
# donors responded [2, 5]: 5
T cell response [SFC] ([2]; per epitope): 2717 SFC
# of responders [2]: 5

VPLLAIGCY
IC50 ([1]; allele B*3501): 168 nM
# donors responded [2, 6]: 7
T cell response [SFC] ([2]; per epitope): 1520 SFC
# of responders [2]: 7
Total Response per epitope [2, 7]: 1520.0

MEITAEWLW
IC50 ([1]; allele B*5801): 5 nM
Total Response per epitope [2, 4]: 583.3
# donors responded [2, 5]: 1
T cell response [SFC] ([2]; per epitope): 583 SFC
# of responders [2]: 1

CC(C)C[C@H](NC(=O)[C@H](CCC(N)=O)NC(=O)[C@@H](NC(=O)[C@H](Cc1ccc(O)cc1)NC(=O)[C@@H](N)C(C)C)[C@@H](C)O)C(=O)N[C@@H](CS)C(=O)N[C@@H](CC(=O)O)C(=O)N[C@@H](Cc1c[nH]cn1)C(=O)N[C@@H](CCCNC(=N)N)C(=O)O
IC50 ([1]; allele A*3301): 1900 nM
# donors responded [2, 6]: 1
Total Response per epitope [2, 7]: 35.0

CC[C@H](C)[C@H](NC(=O)[C@H](CCSC)NC(=O)[C@H](CC(C)C)NC(=O)CNC(=O)[C@H](CC(C)C)NC(=O)[C@H](CC(C)C)NC(=O)[C@H](CC(C)C)NC(=O)[C@H](CC(C)C)NC(=O)[C@@H](N)[C@@H](C)O)C(=O)N[C@@H](CC(C)C)C(=O)O [NS4A2150-2159]
T cell response [SFC] [3]: 990 SFC

LWEGSPGKF
IC50 ([1]; allele A*2402): 6160 nM
Total Response per epitope [2, 4]: 25.0
# donors responded [2, 5]: 1

CC[C@H](C)[C@H](NC(=O)CNC(=O)[C@H](CCC(=O)O)NC(=O)CNC(=O)[C@H](CCC(=O)O)NC(=O)[C@H](CCSC)NC(=O)[C@H](CCC(N)=O)NC(=O)[C@@H](N)CCCNC(=N)N)C(=O)N[C@@H](Cc1ccccc1)C(=O)O
IC50 ([1]; allele B*1501): 6 nM
Total Response per epitope [2, 4]: 108.3
# donors responded [2, 5]: 1

CC[C@H](C)[C@H](NC(=O)[C@H](CCSC)NC(=O)[C@H](CCSC)NC(=O)[C@@H](N)CC(C)C)C(=O)N[C@@H](CC(C)C)C(=O)N1CCC[C@H]1C(=O)N[C@@H](C)C(=O)N[C@@H](C)C(=O)N[C@@H](CC(C)C)C(=O)O [Epitope C106-114, LMMILPAAL]
T cell response [SFC] [3]: 1679 SFC

CC[C@H](C)[C@H](NC(=O)[C@@H]1CCCN1C(=O)CNC(=O)[C@@H](NC(=O)[C@H](C)N)[C@@H](C)O)C(=O)N[C@@H](CC(C)C)C(=O)N[C@H](C(=O)N[C@@H](CC(C)C)C(=O)N[C@@H](Cc1c[nH]c2ccccc12)C(=O)O)[C@@H](C)O
IC50 ([1]; allele B*5801): 13 nM
# donors responded [2, 8]: 2
T cell response [SFC] ([2]; per epitope): 938 SFC
# of responders [2]: 2
Total Response per epitope [2, 9]: 938.3

CSCC[C@H](NC(=O)[C@@H](NC(=O)[C@H](Cc1c[nH]cn1)NC(=O)[C@H](Cc1ccccc1)NC(=O)[C@@H](NC(=O)CNC(=O)[C@H](CCC(=O)O)NC(=O)[C@@H](N)CCSC)C(C)C)[C@@H](C)O)C(=O)N[C@@H](Cc1c[nH]c2ccccc12)C(=O)O
IC50 ([1]; allele B*4403): 3 nM

CC[C@H](C)[C@H](NC(=O)[C@H](CCC(N)=O)NC(=O)[C@@H](N)CCCCN)C(=O)N[C@@H](C)C(=O)N[C@@H](CC(N)=O)C(=O)N[C@@H](CCC(=O)O)C(=O)N[C@@H](CC(C)C)C(=O)N[C@@H](CC(N)=O)C(=O)N[C@@H](Cc1ccc(O)cc1)C(=O)O
IC50 ([1]; allele B*1501): 9 nM
# donors responded [2, 8]: 1
Total Response per epitope [2, 9]: 26.7

MAVGMVSIL
IC50 ([1]; allele B*3501): 10 nM
Total Response per epitope [2, 4]: 361.7
# donors responded [2, 5]: 5

YENLKYSVI
IC50 ([1]; allele B*4402): 90 nM
# donors responded [2, 6]: 1
Total Response per epitope [2, 7]: 381.7

ATGPITTLW
IC50 ([1]; allele B*5801): 5 nM
# donors responded [2, 8]: 1
T cell response [SFC] ([2]; per epitope): 505 SFC
# of responders [2]: 1
Total Response per epitope [2, 9]: 505.0

VATTFVTPM
IC50 ([1]; allele B*3501): 205 nM
# donors responded [2, 6]: 8
T cell response [SFC] ([2]; per epitope): 2777 SFC
# of responders [2]: 8
Total Response per epitope [2, 7]: 2776.7

CC[C@H](C)[C@H](N)C(=O)N[C@@H](CS)C(=O)N[C@@H](CO)C(=O)N[C@@H](C)C(=O)N[C@H](C(=O)N1CCC[C@H]1C(=O)N[C@H](C(=O)N[C@@H](Cc1c[nH]cn1)C(=O)N[C@@H](Cc1c[nH]c2ccccc12)C(=O)O)C(C)C)C(C)C
IC50 ([1]; allele B*5801): 6 nM
# donors responded [2, 8]: 1
Total Response per epitope [2, 9]: 115.0

CC(C)[C@H](NC(=O)[C@H](CCC(=O)O)NC(=O)[C@H](Cc1ccc(O)cc1)NC(=O)[C@H](CO)NC(=O)CNC(=O)[C@H](Cc1c[nH]cn1)NC(=O)[C@H](Cc1ccc(O)cc1)NC(=O)[C@H](C)NC(=O)[C@@H](N)Cc1c[nH]c2ccccc12)C(=O)O
IC50 ([1]; allele B*5101): 11 nM
# donors responded [2, 6]: 1
Total Response per epitope [2, 7]: 25.0

MALKDFKEF
IC50 ([1]; allele B*3501): 77 nM

GEGLHKLGY
IC50 ([1]; allele B*4403): 281 nM
# donors responded [2, 8]: 2
Total Response per epitope [2, 9]: 413.3

KVRKDIQQW
IC50 ([1]; allele B*5701): 15 nM
Total Response per epitope [2, 4]: 38.3
# donors responded [2, 5]: 1

CC(C)C[C@H](NC(=O)[C@@H](NC(=O)[C@H](Cc1c[nH]c2ccccc12)NC(=O)[C@H](C)NC(=O)[C@H](CO)NC(=O)[C@H](C)NC(=O)[C@@H]1CCCN1C(=O)[C@@H](N)Cc1c[nH]cn1)[C@@H](C)O)C(=O)N[C@@H](Cc1ccc(O)cc1)C(=O)O
IC50 ([1]; allele B*3501): 6 nM
# donors responded [2, 8]: 3
Total Response per epitope [2, 9]: 281.7

QYIFTGQPL
IC50 ([1]; allele A*2402): 271 nM
Total Response per epitope [2, 4]: 138.3
# donors responded [2, 5]: 1

RAAVEDEEF
IC50 ([1]; allele B*5801): 866 nM
Total Response per epitope [2, 4]: 381.7
# donors responded [2, 5]: 1

LPVWLAYKVA
IC50 ([1]; allele B*3501): 5100 nM
Total Response per epitope [2, 4]: 2426.7
# donors responded [2, 5]: 7
T cell response [SFC] ([2]; per epitope): 2427 SFC
# of responders [2]: 7

MMATIGIAL [MMATIGIAL]
IC50 ([1]; allele B*3501): 1120 nM
Total Response per epitope [2, 4]: 908.3
# donors responded [2, 5]: 6

CSCC[C@H](NC(=O)[C@H](CCCCN)NC(=O)[C@H](CC(C)C)NC(=O)[C@@H](NC(=O)[C@@H](N)CCCNC(=N)N)C(C)C)C(=O)N[C@H](C(=O)N[C@@H](CCC(=O)O)C(=O)N1CCC[C@H]1C(=O)N[C@@H](Cc1c[nH]c2ccccc12)C(=O)O)C(C)C
IC50 ([1]; allele B*5801): 1 nM
Total Response per epitope [2, 4]: 150.0
# donors responded [2, 5]: 1

CC[C@H](C)[C@H](NC(=O)[C@@H]1CCCN1C(=O)CNC(=O)[C@@H](NC(=O)[C@H](C)N)[C@@H](C)O)C(=O)N[C@@H](CO)C(=O)N[C@H](C(=O)N[C@@H](CC(C)C)C(=O)N[C@@H](Cc1c[nH]c2ccccc12)C(=O)O)[C@@H](C)O
IC50 ([1]; allele B*5801): 1 nM
# donors responded [2, 8]: 2
T cell response [SFC] ([2]; per epitope): 236 SFC
# of responders [2]: 2
Total Response per epitope [2, 9]: 235.5

CC[C@H](C)[C@H](NC(=O)[C@H](CCSC)NC(=O)[C@@H](N)CO)C(=O)N[C@@H](CC(N)=O)C(=O)NCC(=O)N[C@H](C(=O)N[C@H](C(=O)N[C@@H](CCCCN)C(=O)N[C@@H](CC(C)C)C(=O)O)C(C)C)C(C)C [NS52814-2822]
T cell response [SFC] [3]: 1016 SFC

CC[C@H](C)[C@H](NC(=O)[C@H](Cc1ccccc1)NC(=O)[C@@H](NC(=O)[C@@H](N)C(C)C)[C@@H](C)CC)C(=O)N[C@@H](CC(C)C)C(=O)N[C@@H](CC(C)C)C(=O)N[C@@H](CCSC)C(=O)N[C@@H](CC(C)C)C(=O)N[C@H](C(=O)O)C(C)C [Epitope M268-276]
T cell response [SFC] [3]: 607 SFC

TPPGSRDPF
IC50 ([1]; allele B*3501): 161 nM
# donors responded [2, 6]: 7
Total Response per epitope [2, 7]: 1416.7

DPASIAARGY
IC50 ([1]; allele B*3501): 5620 nM
# donors responded [2, 8]: 9
T cell response [SFC] ([2]; per epitope): 2383 SFC
# of responders [2]: 9
Total Response per epitope [2, 9]: 2383.3

MALSIVSLF
IC50 ([1]; allele B*5101): 605 nM
# donors responded [2, 8]: 1
Total Response per epitope [2, 9]: 48.3

CC[C@H](C)[C@H](NC(=O)[C@H](CC(C)C)NC(=O)[C@H](CC(C)C)NC(=O)[C@H](C)NC(=O)[C@@H](NC(=O)[C@H](CCCCN)NC(=O)[C@H](CC(C)C)NC(=O)[C@H](CC(C)C)NC(=O)[C@@H](N)C(C)C)[C@@H](C)O)C(=O)N[C@H](C(=O)O)C(C)C [NS2B1444-1453]
T cell response [SFC] [3]: 203 SFC

CSCC[C@H](NC(=O)[C@H](CCC(N)=O)NC(=O)[C@@H](N)CCCNC(=N)N)C(=O)N[C@@H](CCC(=O)O)C(=O)NCC(=O)N[C@@H](CCC(=O)O)C(=O)NCC(=O)N[C@H](C(=O)N[C@@H](CC(C)C)C(=O)O)C(C)C
IC50 ([1]; allele B*1501): 19 nM
Total Response per epitope [2, 4]: 56.7
# donors responded [2, 5]: 1

MLVTPSMTM
IC50 ([1]; allele B*3501): 3850 nM
Total Response per epitope [2, 4]: 1735.0
# donors responded [2, 5]: 8
T cell response [SFC] ([2]; per epitope): 1735 SFC
# of responders [2]: 8

WHYDQDHPY
IC50 ([1]; allele B*3501): 7600 nM

CSCC[C@H](NC(=O)[C@H](Cc1ccccc1)NC(=O)[C@@H](NC(=O)[C@@H]1CCCN1C(=O)[C@@H](N)CC(C)C)[C@@H](C)O)C(=O)N[C@H](C(=O)N[C@@H](CCC(N)=O)C(=O)N[C@@H](CCCCN)C(=O)N[C@@H](C)C(=O)N[C@@H](CCCNC(=N)N)C(=O)O)[C@@H](C)O
Total Response per epitope [2, 4]: 1263.3
# donors responded [2, 5]: 8
